{
  "source": "paper PMC6476176",
  "about": "(Ultrasound in medicine & biology, 2018)",
  "key": {"[1]": {"assay": "Histological analysis of skin samples", "type": "in vivo, Yorkshire pigs", "conditions": "pig"}, "[2]": {"assay": "Plasma T-20 concentration and pharmacokinetics in porcine model", "type": "in vivo, Yorkshire pigs", "conditions": "Yorkshire, pig, sc, 90 mg"}, "[3]": {"conditions": "cited from earlier work"}, "[4]": {"conditions": "T-20 subcutaneous injection twice daily 29 days, n=12"}},
  "note": "Where two headings read alike, the source gives them in different places.",
  "data": [
    {"substance": "enfuvirtide", "values": [
      {"measurement": "Skin irritation: Major, number of Subjects", "setting": "[1]; in vivo", "value": 1},
      {"measurement": "Skin irritation: Minor, number of Subjects", "setting": "[1]; in vivo", "value": 4},
      {"measurement": "Skin irritation: None, number of Subjects", "setting": "[1]; in vivo", "value": 7},
      {"measurement": "Skin irritation: Similar to Eczema, number of Subjects", "setting": "[1]; in vivo", "value": 1},
      {"measurement": "Skin irritation: Major+ Necrosis, number of Subjects", "setting": "[1]; in vivo, sc", "value": 3},
      {"measurement": "Skin irritation: Major, number of Subjects", "setting": "[1]; [4]", "value": 3},
      {"measurement": "Skin irritation: Minor, number of Subjects", "setting": "[1]; [4]", "value": 3},
      {"measurement": "Skin irritation: None, number of Subjects", "setting": "[1]; [4]", "value": 2},
      {"measurement": "Skin irritation: Similar to Eczema, number of Subjects", "setting": "[1]; [4]", "value": 1},
      {"measurement": "AUC(0-inf)", "setting": "[2]", "value": 43300, "unit": "ng·h/mL"},
      {"measurement": "Cmax", "setting": "[2]", "value": 6310, "unit": "ng/mL"},
      {"measurement": "half-life", "setting": "[2]", "value": 3.97, "unit": "h"},
      {"measurement": "tmax", "setting": "[2]", "value": 2.5, "unit": "h"},
      {"measurement": "AUC∞", "setting": "[3]; human, in vivo", "value": "55.8 (22%) μg·h/mL"},
      {"measurement": "Cmax", "setting": "[3]; human, in vivo", "value": "4.59 (32%) μg/mL"},
      {"measurement": "Tmax humans (median)", "setting": "[3]; human, in vivo", "value": 6.9, "unit": "h"},
      {"measurement": "Tmax humans (range)", "setting": "[3]; human, in vivo", "value": "3 to 12", "unit": "h"},
      {"measurement": "tmax", "setting": "[3]; human, in vivo", "value": "6.92 (36%) h"},
      {"measurement": "t½", "setting": "[3]; human, in vivo", "value": "3.80 (15%) h"},
      {"measurement": "typical human plasma Ctrough", "setting": "[3]; human, ref Usa, 2012", "value": "3300 ± 1600", "unit": "ng/mL"},
      {"measurement": "CI", "setting": "[3]; in vivo", "value": "1.68 (22%) L/h"}
    ]}
  ]
}
